Measurements reported in patent publication US10800816B2 (Baxalta GmbH, priority 2012, dated 2020).

Tested on: not listed separately
Assay: Pharmacokinetics in C57Bl6 mice
Format: in vivo, mouse
Conditions: 1 mg/kg peptide content, intravenous, 1 mg/kg

Compound	HL_λ_z [h] (intravenous)
Ac-FQSKpNVHVDGYFERL-Aib-AKLC(PEG)-NH2 [JBT2325] (FQSKPNVHVDGYFERLXAKLC; acetyl, D-Pro, Aib, Cys-PEG 5.3 kD, amide; MOD_RES (1)..(1): N-terminal acetylation; MOD_RES (5)..(5): D-Pro; MOD_RES (17)..(17): Xaa is 2-amino-isobutyric acid; MOD_RES (21)..(21): Cys-PEG; MOD_RES (21)..(21): C-terminal amidation) [PEG 5.3 kD, linear maleimide PEG]	0.16 h
Ac-FQSKpNVHVDGYFERL-Aib-AKLC(PEG)-NH2 [JBT2326] (FQSKPNVHVDGYFERLXAKLC; acetyl, D-Pro, Aib, Cys-PEG 12.1 kD, amide; MOD_RES (1)..(1): N-terminal acetylation; MOD_RES (5)..(5): D-Pro; MOD_RES (17)..(17): Xaa is 2-amino-isobutyric acid; MOD_RES (21)..(21): Cys-PEG; MOD_RES (21)..(21): C-terminal amidation)	0.35 h
Ac-FQSKpNVHVDGYFERL-Aib-AKLC(PEG)-NH2 [JBT2327] (FQSKPNVHVDGYFERLXAKLC; acetyl, D-Pro, Aib, Cys-PEG 21.0 kD, amide; MOD_RES (1)..(1): N-terminal acetylation; MOD_RES (5)..(5): D-Pro; MOD_RES (17)..(17): Xaa is 2-amino-isobutyric acid; MOD_RES (21)..(21): Cys-PEG; MOD_RES (21)..(21): C-terminal amidation) [PEG 21.0 kD, linear maleimide PEG]	4.2 h
Ac-FQSKpNVHVDGYFERL-Aib-AKLC(PEG)-NH2 [JBT2328] (FQSKPNVHVDGYFERLXAKLC; acetyl, D-Pro, Aib, Cys-PEG 29.1 kD, amide; MOD_RES (1)..(1): N-terminal acetylation; MOD_RES (5)..(5): D-Pro; MOD_RES (17)..(17): Xaa is 2-amino-isobutyric acid; MOD_RES (21)..(21): Cys-PEG; MOD_RES (21)..(21): C-terminal amidation) [PEG 29.1 kD, linear maleimide PEG]	10.1 h

Same assay, conditions: 1 mg/kg peptide content, s.c. AUC vs i.v. AUC, 1 mg/kg

Compound	Bioavailability [%] (s.c.)
Ac-FQSKpNVHVDGYFERL-Aib-AKLC(PEG)-NH2 [JBT2325] (FQSKPNVHVDGYFERLXAKLC; acetyl, D-Pro, Aib, Cys-PEG 5.3 kD, amide; MOD_RES (1)..(1): N-terminal acetylation; MOD_RES (5)..(5): D-Pro; MOD_RES (17)..(17): Xaa is 2-amino-isobutyric acid; MOD_RES (21)..(21): Cys-PEG; MOD_RES (21)..(21): C-terminal amidation) [PEG 5.3 kD, linear maleimide PEG]	58.2%
Ac-FQSKpNVHVDGYFERL-Aib-AKLC(PEG)-NH2 [JBT2326] (FQSKPNVHVDGYFERLXAKLC; acetyl, D-Pro, Aib, Cys-PEG 12.1 kD, amide; MOD_RES (1)..(1): N-terminal acetylation; MOD_RES (5)..(5): D-Pro; MOD_RES (17)..(17): Xaa is 2-amino-isobutyric acid; MOD_RES (21)..(21): Cys-PEG; MOD_RES (21)..(21): C-terminal amidation)	76.0%
Ac-FQSKpNVHVDGYFERL-Aib-AKLC(PEG)-NH2 [JBT2327] (FQSKPNVHVDGYFERLXAKLC; acetyl, D-Pro, Aib, Cys-PEG 21.0 kD, amide; MOD_RES (1)..(1): N-terminal acetylation; MOD_RES (5)..(5): D-Pro; MOD_RES (17)..(17): Xaa is 2-amino-isobutyric acid; MOD_RES (21)..(21): Cys-PEG; MOD_RES (21)..(21): C-terminal amidation) [PEG 21.0 kD, linear maleimide PEG]	89.7%
Ac-FQSKpNVHVDGYFERL-Aib-AKLC(PEG)-NH2 [JBT2328] (FQSKPNVHVDGYFERLXAKLC; acetyl, D-Pro, Aib, Cys-PEG 29.1 kD, amide; MOD_RES (1)..(1): N-terminal acetylation; MOD_RES (5)..(5): D-Pro; MOD_RES (17)..(17): Xaa is 2-amino-isobutyric acid; MOD_RES (21)..(21): Cys-PEG; MOD_RES (21)..(21): C-terminal amidation) [PEG 29.1 kD, linear maleimide PEG]	52.0%

Tested on: not listed separately
Assay: FIGURE 78O
Conditions: not given

Compound	24 h Human Plasma Stability | Mean Remaining [%]	24 h Mouse Plasma Stability | Mean Remaining [%]
CCN1C(=O)CC(SC[C@H](NC(=O)[C@H]2CCCN2C(=O)[C@H](CCCCN)NC(=O)[C@H](CO)NC(=O)[C@H](CCC(N)=O)NC(=O)[C@H](Cc2ccccc2)NC(C)=O)C(=O)N[C@H](C(=O)N[C@@H](Cc2c[nH]cn2)C(=O)N[C@H](C(=O)N[C@@H](CC(=O)O)C(=O)NCC(=O)N[C@@H](Cc2ccc(O)cc2)C(=O)N[C@@H](Cc2ccccc2)C(=O)N[C@@H](CCC(=O)O)C(=O)N[C@@H](CCCNC(=N)N)C(=O)N[C@@H](CC(C)C)C(=O)NC(C)(C)C(=O)N[C@@H](C)C(=O)N[C@@H](CCCCN)C(=O)N[C@@H](CC(C)C)C(N)=O)C(C)C)C(C)C)C1=O (stereo partly shown) [JBT00002397]	10.60%	
CCN1C(=O)CC(SC[C@H](NC(=O)[C@@H](NC(=O)[C@H](Cc2c[nH]cn2)NC(=O)[C@@H](NC(=O)[C@H](CC(N)=O)NC(=O)[C@H]2CCCN2C(=O)[C@H](CCCCN)NC(=O)[C@H](CO)NC(=O)[C@H](CCC(N)=O)NC(=O)[C@H](Cc2ccccc2)NC(C)=O)C(C)C)C(C)C)C(=O)NCC(=O)N[C@@H](Cc2ccc(O)cc2)C(=O)N[C@@H](Cc2ccccc2)C(=O)N[C@@H](CCC(=O)O)C(=O)N[C@@H](CCCNC(=N)N)C(=O)N[C@@H](CC(C)C)C(=O)NC(C)(C)C(=O)N[C@@H](C)C(=O)N[C@@H](CCCCN)C(=O)N[C@@H](CC(C)C)C(N)=O)C1=O (stereo partly shown) [JBT00002398, Ac-FQSKpNVHV-C(NEM)-GYFERL-Aib-AKL-NH2]	39.05%	21.60%
CCN1C(=O)CC(SC[C@H](NC(=O)[C@H](Cc2ccccc2)NC(=O)[C@H](Cc2ccc(O)cc2)NC(=O)CNC(=O)[C@H](CC(=O)O)NC(=O)[C@@H](NC(=O)[C@H](Cc2c[nH]cn2)NC(=O)[C@@H](NC(=O)[C@H](CC(N)=O)NC(=O)[C@H]2CCCN2C(=O)[C@H](CCCCN)NC(=O)[C@H](CO)NC(=O)[C@H](CCC(N)=O)NC(=O)[C@H](Cc2ccccc2)NC(C)=O)C(C)C)C(C)C)C(=O)N[C@@H](CCCNC(=N)N)C(=O)N[C@@H](CC(C)C)C(=O)NC(C)(C)C(=O)N[C@@H](C)C(=O)N[C@@H](CCCCN)C(=O)N[C@@H](CC(C)C)C(N)=O)C1=O (stereo partly shown) [JBT00002399]	10.70%	
CCSC1CC(=O)N(CCC(=O)NCCCOCCOCCOCCCNC(=O)CCC(=O)NCCCC[C@H](NC(=O)[C@H](CC(C)C)NC(=O)[C@H](CCCCN)NC(=O)[C@H](C)NC(=O)C(C)(C)NC(=O)[C@H](CC(C)C)NC(=O)[C@H](CCCNC(=N)N)NC(=O)[C@H](CCC(=O)O)NC(=O)[C@H](Cc2ccccc2)NC(=O)[C@H](Cc2ccc(O)cc2)NC(=O)CNC(=O)[C@H](CC(=O)O)NC(=O)[C@@H](NC(=O)[C@H](Cc2c[nH]cn2)NC(=O)[C@@H](NC(=O)[C@H](CC(N)=O)NC(=O)[C@H]2CCCN2C(=O)[C@H](CCCCN)NC(=O)[C@H](CO)NC(=O)[C@H](CCC(N)=O)NC(=O)[C@H](Cc2ccccc2)NC(C)=O)C(C)C)C(C)C)C(N)=O)C1=O (stereo partly shown) [JBT00002400]	60.00%	
Ac-FQSKp-C(ME-400MA)-VHVDGYFERL-Aib-AKL-NH2 [JBT00002402]	75.30%	99.70%
Ac-FQSKpNVHV-C(ME-400MA)-GYFERL-Aib-AKL-NH2 [JBT00002403]	96.70%	92.50%

Tested on: not listed separately
Assay: FIGURE 78P
Conditions: not given

Compound	24 h Human Plasma Stability | Mean Remaining [%]	24 h Mouse Plasma Stability | Mean Remaining [%]
CC(C)C[C@@H]1NC(=O)[C@H](CCCCN)NC(=O)[C@H](C)NC(=O)C(C)(C)NC(=O)[C@H](CC(C)C)NC(=O)[C@H](CCCNC(=N)N)NC(=O)[C@H](CCC(=O)O)NC(=O)[C@H](Cc2ccccc2)NC(=O)[C@H](Cc2ccc(O)cc2)NC(=O)CNC(=O)[C@H](CC(=O)O)NC(=O)[C@H](C(C)C)NC(=O)[C@H](Cc2c[nH]cn2)NC(=O)[C@H](C(C)C)NC(=O)[C@H](CC(N)=O)NC(=O)[C@H]2CCCN2C(=O)[C@H](CCCCN)NC(=O)[C@H](CO)NC(=O)[C@H](CCC(N)=O)NC(=O)[C@H](Cc2ccccc2)NC(=O)CCOCCOCCOCCOCCOCCNC1=O [JBT00002405]	55.90%	
CC(C)C[C@@H]1NC(=O)[C@H](CCCCN)NC(=O)[C@H](C)NC(=O)C(C)(C)NC(=O)[C@H](CC(C)C)NC(=O)[C@H](CCCNC(=N)N)NC(=O)[C@H](CCC(=O)O)NC(=O)[C@H](Cc2ccccc2)NC(=O)[C@H](Cc2ccc(O)cc2)NC(=O)CNC(=O)[C@H](CC(=O)O)NC(=O)[C@H](C(C)C)NC(=O)[C@H](Cc2c[nH]cn2)NC(=O)[C@H](C(C)C)NC(=O)[C@H](CC(N)=O)NC(=O)[C@H]2CCCN2C(=O)[C@H](CCCCN)NC(=O)[C@H](CO)NC(=O)[C@H](CCC(N)=O)NC(=O)[C@H](Cc2ccccc2)NC(=O)CCOCCOCCOCCOCCNC1=O [JBT00002406]	62.80%	38.10%
CC(C)C[C@@H]1NC(=O)[C@H](CCCCN)NC(=O)[C@H](C)NC(=O)C(C)(C)NC(=O)[C@H](CC(C)C)NC(=O)[C@H](CCCNC(=N)N)NC(=O)[C@H](CCC(=O)O)NC(=O)[C@H](Cc2ccccc2)NC(=O)[C@H](Cc2ccc(O)cc2)NC(=O)CNC(=O)[C@H](CC(=O)O)NC(=O)[C@H](C(C)C)NC(=O)[C@H](Cc2c[nH]cn2)NC(=O)[C@H](C(C)C)NC(=O)[C@H](CC(N)=O)NC(=O)[C@H]2CCCN2C(=O)[C@H](CCCCN)NC(=O)[C@H](CO)NC(=O)[C@H](CCC(N)=O)NC(=O)[C@H](Cc2ccccc2)NC(=O)CCOCCOCCOCCNC1=O [JBT00002407]	45.20%	
CC(C)C[C@@H]1NC(=O)[C@H](CCCCN)NC(=O)[C@H](C)NC(=O)C(C)(C)NC(=O)[C@H](CC(C)C)NC(=O)[C@H](CCCNC(=N)N)NC(=O)[C@H](CCC(=O)O)NC(=O)[C@H](Cc2ccccc2)NC(=O)[C@H](Cc2ccc(O)cc2)NC(=O)CNC(=O)[C@H](CC(=O)O)NC(=O)[C@H](C(C)C)NC(=O)[C@H](Cc2c[nH]cn2)NC(=O)[C@H](C(C)C)NC(=O)[C@H](CC(N)=O)NC(=O)[C@H]2CCCN2C(=O)[C@H](CCCCN)NC(=O)[C@H](CO)NC(=O)[C@H](CCC(N)=O)NC(=O)[C@H](Cc2ccccc2)NC(=O)COCCOCCNC1=O [JBT00002408]	61.60%	39.40%
Ac-FQSKpNVHVDGYF-C(ME-400MA)-RL-Aib-AKL-NH2 [JBT00002404]		93.20%
Ac-FQSKpNVHVDGYFERL-Aib-AKLK(Ttds-Maleimid-HSA)- NH2 [JBT00002410]		79.15%

Tested on: TFPI
Assay: IC50 ELISA | Mean IC50 [nM]
Conditions: not given
Excerpt: Table printed on a drawing sheet, FIGURE 78Z
Head of the field: IC50 ELISA | Mean IC50 [nM]
First copying reader's note: Continued table: the first body row (45.67) belongs to a compound on the preceding sheet, the last row probably continues on the next sheet, and cells with several values list single replicates.

Compound	IC50
(Hex-FQSKp-Cys(Acm)-VH-Tle-DaYFERL-Aib-AKLC- NH2)2-M2TriO [JBT00002533]	3.1 nM
Hex-FQSKp-Cys(Acm)-VH-Tle-DaYFERL-Aib-AK-OH [JBT00002543]	71.1 nM
Hex-FQSKp-Cys(Acm)-VH-Tle-DaYFERL-Aib-AKL-Ttds- K(Ttds-Myr)--NH2 [JBT00002539]	10.1 nM
Hex-FQSKp-Cys(Acm)-VH-Tle-DaYFERL-Aib-AKLC(ME- 400MA)-NH2 [JBT00002534]	15.3 nM
Hex-FQSKp-Cys(Acm)-VH-Tle-DaYFERL-Aib-AKLK(Ttds- Ac)--NH2 [JBT00002540]	3.99 nM
Hex-FQSKp-Cys(Acm)-VH-Tle-DaYFERL-Aib-AKLK(Ttds- gGlu-Myr)--NH2 [JBT00002541]	24.3 nM
